According to paper PMC12027554, “Inhibition of ABCG2 by SCO-101 Enhances Chemotherapy Efficacy in Cancer” (International Journal of Molecular Sciences, 2025):

What was measured:
MRP2/ABCC2 = biological target: T1, MRP2/ABCC2 (Homo sapiens, UniProt Q92887); assay: Efflux transporter inhibition, vesicular uptake into inside-out membrane vesicles (ABCC2); format: biochemical; conditions: 100 μM 5(6)-carboxy-2′,7′-dichlorofluorescein
T1 construct: purchased SOLVO biotechnology, Budapest, Hungary
Method: Efflux transporter inhibition was evaluated by measuring vesicular uptake into inside-out membrane vesicles (SOLVO biotechnology, Budapest, Hungary) expressing a single human ABC transporter (0.67 mg/mL ABCB1; 0.67 mg/mL ABCC2; 0.33 mg/mL ABCG2 membrane protein) of a probe substrate (1 μM N-methyl-quinidine for ABCB1; 100 μM 5(6)-carboxy-2′,7′-dichlorofluorescein for ABCC2; 1 μM Eestrone-3-sulfate for ABCG2) in the presence of SCO-101 with and without ATP (4 mM) in 96-well plate format. Control solvent and control inhibitors (4–60 μM verapamil for […]; 1–15 μM sulfasalazine for ABCG2; 5.5–150 μM benzbromarone for ABCC2) were incubated in parallel. Vesicular uptake was conducted at 37 °C in incubation buffer (10 mM Tris-HCl, pH 7.4, 10 mM MgCl2, 250 mM sucrose) and terminated after 1 min (ABCB1 and ABCG2) or 5 min (ABCC2) by adding ice-cold washing buffer (10 mM Tris-HCl, pH 7.4, 100 mM NaCl, 250 mM sucrose). […] Probe quantification was conducted using LC-MS/MS peak areas (solvent control with ATP − AMP = 100%). […] The remaining transporter activity % was calculated according to the formula below, and fitting was performed using GraphPad Prism: A%=AATP,sample−AAMP,sample/AATP,solvent−AAMP,solvent

[1] = biological target: other members of the UGT family; assay: Inhibition of glucuronidation activity of other UGT family enzymes; format: biochemical; conditions: Figure S3F

T1 sequence (Q92887 whole entry): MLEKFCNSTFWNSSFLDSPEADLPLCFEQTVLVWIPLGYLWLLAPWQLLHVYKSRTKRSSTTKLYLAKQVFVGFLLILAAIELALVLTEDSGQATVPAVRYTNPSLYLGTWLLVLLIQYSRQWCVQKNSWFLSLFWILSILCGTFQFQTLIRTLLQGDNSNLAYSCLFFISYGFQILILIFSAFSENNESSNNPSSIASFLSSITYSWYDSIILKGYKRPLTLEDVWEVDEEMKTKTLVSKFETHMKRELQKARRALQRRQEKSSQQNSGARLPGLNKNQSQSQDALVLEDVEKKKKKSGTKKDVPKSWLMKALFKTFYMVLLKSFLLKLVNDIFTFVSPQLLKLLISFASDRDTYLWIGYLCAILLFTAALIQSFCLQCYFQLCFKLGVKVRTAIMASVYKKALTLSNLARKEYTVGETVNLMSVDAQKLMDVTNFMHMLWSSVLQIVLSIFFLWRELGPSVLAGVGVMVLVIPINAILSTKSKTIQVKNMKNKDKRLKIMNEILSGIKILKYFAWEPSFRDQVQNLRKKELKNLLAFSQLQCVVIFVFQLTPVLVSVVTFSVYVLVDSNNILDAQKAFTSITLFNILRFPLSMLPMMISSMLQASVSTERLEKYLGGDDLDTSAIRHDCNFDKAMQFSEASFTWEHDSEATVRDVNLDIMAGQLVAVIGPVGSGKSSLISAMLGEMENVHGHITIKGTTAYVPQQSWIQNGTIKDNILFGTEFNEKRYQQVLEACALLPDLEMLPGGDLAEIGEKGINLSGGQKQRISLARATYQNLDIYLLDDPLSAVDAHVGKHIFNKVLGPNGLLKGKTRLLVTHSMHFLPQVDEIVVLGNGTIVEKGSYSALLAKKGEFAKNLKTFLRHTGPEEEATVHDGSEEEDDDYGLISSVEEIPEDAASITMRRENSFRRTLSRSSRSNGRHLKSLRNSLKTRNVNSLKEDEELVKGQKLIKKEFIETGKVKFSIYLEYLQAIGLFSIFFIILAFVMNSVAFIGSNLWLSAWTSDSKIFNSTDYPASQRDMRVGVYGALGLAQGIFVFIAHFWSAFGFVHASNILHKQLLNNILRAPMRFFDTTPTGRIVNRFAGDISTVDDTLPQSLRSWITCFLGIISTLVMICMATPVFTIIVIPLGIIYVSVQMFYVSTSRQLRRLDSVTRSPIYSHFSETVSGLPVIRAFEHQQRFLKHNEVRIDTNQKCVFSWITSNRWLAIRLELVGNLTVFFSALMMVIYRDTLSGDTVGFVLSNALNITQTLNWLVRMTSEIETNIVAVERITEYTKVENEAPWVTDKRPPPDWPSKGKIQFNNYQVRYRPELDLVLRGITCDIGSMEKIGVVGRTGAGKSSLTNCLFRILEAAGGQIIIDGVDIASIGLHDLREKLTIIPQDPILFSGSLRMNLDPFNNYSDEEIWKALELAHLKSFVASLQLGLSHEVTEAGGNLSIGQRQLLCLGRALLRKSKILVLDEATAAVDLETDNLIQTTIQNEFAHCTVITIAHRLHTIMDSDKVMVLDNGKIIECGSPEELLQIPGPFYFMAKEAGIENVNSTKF

For `O=C(Nc1cc(C(F)(F)F)cc(C(F)(F)F)c1)Nc1ccc(Br)cc1-c1nnn[nH]1` [SCO-101, N-[4-Bromo-2-(1H-1,2,3,4-tetrazol-5-yl)phenyl]-N′-[3,5-bis(trifluoromethyl)phenyl]urea], the IC50 (MRP2/ABCC2) was 24.1 µM and the “IC50 for other members of the UGT family compared with UGT1A1” value [1] was “higher IC50 values”.
